Measured values from the supplement of paper PMC10307832.

Tests used:
Test in all cases: relative viability (nuclei count vs DMSO), 5 days (fraction); higher = more cells survive
201T = test system: 201T
In short: (§1)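 Relative viability was taken as the ratio of nuclei in treated wells to nuclei in vehicle wells. Lung cancer cell lines in 1536-well plates received compounds by pin tool one day after seeding, either one drug alone or a fixed anchor-drug dose plus five library-drug doses (not always all listed) in √10 steps. Nuclei were counted on 4× images after 5 days of treatment, and values are medians of duplicate plates.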

BEN = test system: BEN
In short: as §1

COR-L 105 = test system: COR-L 105
In short: as §1

EKVX = test system: EKVX
In short: as §1

EPLC-272H = test system: EPLC-272H
In short: as §1

H3255 = test system: H3255
In short: as §1

HCC-44 = test system: HCC-44
In short: as §1

HCC-827 = test system: HCC-827
In short: as §1

HOP-62 = test system: HOP-62
In short: as §1

LCLC-97TM1 = test system: LCLC-97TM1
In short: as §1

LOU-NH91 = test system: LOU-NH91
In short: as §1

LU99A = test system: LU99A
In short: as §1

NCI-H1395 = test system: NCI-H1395
In short: as §1

NCI-H1437 = test system: NCI-H1437
In short: as §1

NCI-H1666 = test system: NCI-H1666
In short: as §1

NCI-H1975 = test system: NCI-H1975
In short: as §1

NCI-H2085 = test system: NCI-H2085
In short: as §1

NCI-H2087 = test system: NCI-H2087
In short: as §1

NCI-H2342 = test system: NCI-H2342
In short: as §1

NCI-H358 = test system: NCI-H358
In short: as §1

NCI-H647 = test system: NCI-H647
In short: as §1

PC-3 [JPC-3] = test system: PC-3 [JPC-3]
In short: as §1

SW 1573 = test system: SW 1573
In short: as §1

NC(=O)Nc1cc(-c2cccc(F)c2)sc1C(=O)N[C@H]1CCCNC1 [AZD7762] + Cc1cc(Nc2cc(N3CCN(C)CC3)nc(Sc3ccc(NC(=O)C4CC4)cc3)n2)n[nH]1 [Tozasertib] (partner 0.1 µM)
relative viability (201T; first compound 0.01 µM): 0.957 | relative viability (201T; first compound 0.03162 µM): 0.935 | relative viability (201T; first compound 0.1 µM): 0.98 | relative viability (201T; first compound 0.3162 µM): 1.03 | relative viability (201T; first compound 1 µM): 0.801 | relative viability (BEN; first compound 0.01 µM): 0.521 | relative viability (BEN; first compound 0.03162 µM): 0.465 | relative viability (BEN; first compound 0.1 µM): 0.539 | relative viability (BEN; first compound 0.3162 µM): 0.507 | relative viability (BEN; first compound 1 µM): 0.486 | relative viability (COR-L 105; first compound 0.01 µM): 0.348 | relative viability (COR-L 105; first compound 0.03162 µM): 0.311 | relative viability (COR-L 105; first compound 0.1 µM): 0.328 | relative viability (COR-L 105; first compound 0.3162 µM): 0.3 | relative viability (COR-L 105; first compound 1 µM): 0.258 | relative viability (EKVX; first compound 0.01 µM): 0.393 | relative viability (EKVX; first compound 0.03162 µM): 0.353 | relative viability (EKVX; first compound 0.1 µM): 0.414 | relative viability (EKVX; first compound 0.3162 µM): 0.394 | relative viability (EKVX; first compound 1 µM): 0.255 | relative viability (EPLC-272H; first compound 0.01 µM): 0.274 | relative viability (EPLC-272H; first compound 0.03162 µM): 0.242 | relative viability (EPLC-272H; first compound 0.1 µM): 0.248 | relative viability (EPLC-272H; first compound 0.3162 µM): 0.28 | relative viability (EPLC-272H; first compound 1 µM): 0.0908 | relative viability (H3255; first compound 0.01 µM): 0.704 | relative viability (H3255; first compound 0.03162 µM): 0.595 | relative viability (H3255; first compound 0.1 µM): 0.677 | relative viability (H3255; first compound 0.3162 µM): 0.591 | relative viability (H3255; first compound 1 µM): 0.576 | relative viability (HCC-44; first compound 0.01 µM): 1.1 | relative viability (HCC-44; first compound 0.03162 µM): 0.87 | relative viability (HCC-44; first compound 0.1 µM): 0.714 | relative viability (HCC-44; first compound 0.3162 µM): 0.822 | relative viability (HCC-44; first compound 1 µM): 0.412 | relative viability (HCC-827; first compound 0.01 µM): 0.41 | relative viability (HCC-827; first compound 0.03162 µM): 0.449 | relative viability (HCC-827; first compound 0.1 µM): 0.409 | relative viability (HCC-827; first compound 0.3162 µM): 0.394 | relative viability (HCC-827; first compound 1 µM): 0.372 | relative viability (HOP-62; first compound 0.01 µM): 0.439 | relative viability (HOP-62; first compound 0.03162 µM): 0.376 | relative viability (HOP-62; first compound 0.1 µM): 0.378 | relative viability (HOP-62; first compound 0.3162 µM): 0.339 | relative viability (HOP-62; first compound 1 µM): 0.219 | relative viability (LCLC-97TM1; first compound 0.01 µM): 0.325 | relative viability (LCLC-97TM1; first compound 0.03162 µM): 0.263 | relative viability (LCLC-97TM1; first compound 0.1 µM): 0.225 | relative viability (LCLC-97TM1; first compound 0.3162 µM): 0.398 | relative viability (LCLC-97TM1; first compound 1 µM): 0.292 | relative viability (LOU-NH91; first compound 0.01 µM): 0.741 | relative viability (LOU-NH91; first compound 0.03162 µM): 0.701 | relative viability (LOU-NH91; first compound 0.1 µM): 0.665 | relative viability (LOU-NH91; first compound 0.3162 µM): 0.623 | relative viability (LOU-NH91; first compound 1 µM): 0.429 | relative viability (LU99A; first compound 0.01 µM): 0.318 | relative viability (LU99A; first compound 0.03162 µM): 0.279 | relative viability (LU99A; first compound 0.1 µM): 0.341 | relative viability (LU99A; first compound 0.3162 µM): 0.281 | relative viability (LU99A; first compound 1 µM): 0.218 | relative viability (NCI-H1395; first compound 0.01 µM): 0.771 | relative viability (NCI-H1395; first compound 0.03162 µM): 0.851 | relative viability (NCI-H1395; first compound 0.1 µM): 0.742 | relative viability (NCI-H1395; first compound 0.3162 µM): 0.673 | relative viability (NCI-H1395; first compound 1 µM): 0.386 | relative viability (NCI-H1437; first compound 0.01 µM): 0.408 | relative viability (NCI-H1437; first compound 0.03162 µM): 0.41 | relative viability (NCI-H1437; first compound 0.1 µM): 0.439 | relative viability (NCI-H1437; first compound 0.3162 µM): 0.372 | relative viability (NCI-H1437; first compound 1 µM): 0.366 | relative viability (NCI-H1666; first compound 0.01 µM): 0.703 | relative viability (NCI-H1666; first compound 0.03162 µM): 0.748 | relative viability (NCI-H1666; first compound 0.1 µM): 0.68 | relative viability (NCI-H1666; first compound 0.3162 µM): 0.724 | relative viability (NCI-H1666; first compound 1 µM): 0.47 | relative viability (NCI-H1975; first compound 0.01 µM): 0.762 | relative viability (NCI-H1975; first compound 0.03162 µM): 0.721 | relative viability (NCI-H1975; first compound 0.1 µM): 0.589 | relative viability (NCI-H1975; first compound 0.3162 µM): 0.469 | relative viability (NCI-H1975; first compound 1 µM): 0.367 | relative viability (NCI-H2085; first compound 0.01 µM): 0.875 | relative viability (NCI-H2085; first compound 0.03162 µM): 0.769 | relative viability (NCI-H2085; first compound 0.1 µM): 0.807 | relative viability (NCI-H2085; first compound 0.3162 µM): 0.729 | relative viability (NCI-H2085; first compound 1 µM): 0.713 | relative viability (NCI-H2087; first compound 0.01 µM): 0.24 | relative viability (NCI-H2087; first compound 0.03162 µM): 0.266 | relative viability (NCI-H2087; first compound 0.1 µM): 0.323 | relative viability (NCI-H2087; first compound 0.3162 µM): 0.285 | relative viability (NCI-H2087; first compound 1 µM): 0.232 | relative viability (NCI-H2342; first compound 0.01 µM): 0.489 | relative viability (NCI-H2342; first compound 0.03162 µM): 0.501 | relative viability (NCI-H2342; first compound 0.1 µM): 0.502 | relative viability (NCI-H2342; first compound 0.3162 µM): 0.455 | relative viability (NCI-H2342; first compound 1 µM): 0.487 | relative viability (NCI-H358; first compound 0.01 µM): 0.0979 | relative viability (NCI-H358; first compound 0.03162 µM): 0.088 | relative viability (NCI-H358; first compound 0.1 µM): 0.109 | relative viability (NCI-H358; first compound 0.3162 µM): 0.0755 | relative viability (NCI-H358; first compound 1 µM): 0.0734 | relative viability (NCI-H647; first compound 0.01 µM): 0.379 | relative viability (NCI-H647; first compound 0.03162 µM): 0.218 | relative viability (NCI-H647; first compound 0.1 µM): 0.314 | relative viability (NCI-H647; first compound 0.3162 µM): 0.254 | relative viability (NCI-H647; first compound 1 µM): 0.0439 | relative viability (PC-3 [JPC-3]; first compound 0.01 µM): 0.859 | relative viability (PC-3 [JPC-3]; first compound 0.03162 µM): 0.891 | relative viability (PC-3 [JPC-3]; first compound 0.1 µM): 0.836 | relative viability (PC-3 [JPC-3]; first compound 0.3162 µM): 0.873 | relative viability (PC-3 [JPC-3]; first compound 1 µM): 0.85 | relative viability (SW 1573; first compound 0.01 µM): 0.225 | relative viability (SW 1573; first compound 0.03162 µM): 0.186 | relative viability (SW 1573; first compound 0.1 µM): 0.153 | relative viability (SW 1573; first compound 0.3162 µM): 0.15 | relative viability (SW 1573; first compound 1 µM): 0.117
